In publication PMC7862272, “Discovery of an ene-reductase for initiating flavone and flavonol catabolism in gut bacteria” (Nature Communications, 2021):
Blank lines part the entries; values can stand above or below the molecule they belong to.

Key:
[1] = target: T1, FLR (flavone reductase) (Flavonifractor plautii, UniProt A0A096D7X8); experiment: X-ray crystal structure, soaked SeMet crystal; assay type: binding; details: FMN bound, dimer interface
T1 construct: gene HMPREF9460_03474; SeMet-labelled for crystals

[2] = target: T2, sgrIFR (Streptomyces griseus, UniProt B1W160); experiment: conversion by E. coli expressing the enzyme; assay type: cell-based; details: product dihydrodaidzein
T2 construct: gene SGR_2256; expressed in E. coli BL21 from pET28a, activity of the cell culture
T2 sequence (B1W160 1-332): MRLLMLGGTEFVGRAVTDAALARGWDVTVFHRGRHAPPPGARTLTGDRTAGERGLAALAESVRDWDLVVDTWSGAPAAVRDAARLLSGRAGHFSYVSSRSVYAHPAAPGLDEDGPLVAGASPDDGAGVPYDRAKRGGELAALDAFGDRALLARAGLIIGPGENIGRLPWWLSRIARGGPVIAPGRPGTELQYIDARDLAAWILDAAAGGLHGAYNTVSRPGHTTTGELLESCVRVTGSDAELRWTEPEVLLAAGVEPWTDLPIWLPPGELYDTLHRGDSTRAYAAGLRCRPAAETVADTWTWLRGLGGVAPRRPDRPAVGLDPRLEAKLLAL

[3] = target: T1, FLR (flavone reductase); experiment: X-ray crystal structure (Se-SAD); assay type: binding; details: co-purified FMN at dimer interface
[4] = target: flavone reductase (FLR) from Flavonifractor plautii ATCC 49531 (Flavonifractor plautii ATCC 49531); experiment: SEC-MALS; Superdex-200 10/300; 100 mM NaCl, 20 mM Tris-HCl pH 7.9, 3 mM FMN, 3 mM DTT; 100 uL of FLR at ~5 mg/mL injected; room temperature
[5] = substrate: O=c1cc(-c2ccc(O)cc2)oc2cc(O)cc(O)c12; experiment: purified protein; details: pH 7.0, 37 °C, 5 mM NADH, 0.5 mM FMN, 5 μM Fre, 5% DMSO, anaerobic
[6] = substrate: O=C1C[C@@H](c2ccc(O)cc2)Oc2cc(O)cc(O)c21; experiment: HPLC, steady-state kinetics, reverse reaction; assay type: biochemical, Flavonifractor plautii; details: pH 7.0, 37 °C, 0.5 mM FMN, 5% DMSO, reverse reaction (dehydrogenation to apigenin)
Description: HPLC, steady-state kinetics, reverse reaction on FLR (flavone reductase) | The determination of the Km and kcat values of FLR for naringenin

Molecule: O=c1cc(-c2ccc(O)cc2)oc2cc(O)cc(O)c12 [apigenin]
X-ray crystal structure, soaked SeMet crystal ([1]; 2.55 Å): solved the complex structures of FLR with various substrates, including apigenin, chrysin, and luteolin

Molecule: O=c1c(-c2ccc(O)cc2)coc2cc(O)ccc12 [daidzein]
conversion by E. coli expressing the enzyme [2]: they could convert daidzein (a main isoflavone) to dihydrodaidzein

Molecule: Cc1cc2nc3c(=O)[nH]c(=O)nc-3n(C[C@H](O)[C@H](O)[C@H](O)COP(=O)(O)O)c2cc1C [FMN]
X-ray crystal structure (Se-SAD) [3]: The cofactor molecule FMN binds at the dimer interface

Molecule: O=c1cc(-c2ccc(O)c(O)c2)oc2cc(O)cc(O)c12 [luteolin]
X-ray crystal structure, soaked SeMet crystal ([1]; 2.25 Å): solved the complex structures of FLR with various substrates, including apigenin, chrysin, and luteolin

Molecule: O=c1cc(-c2ccccc2)oc2cc(O)cc(O)c12 [chrysin]
X-ray crystal structure, soaked SeMet crystal ([1]; 2.65 Å): solved the complex structures of FLR with various substrates, including apigenin, chrysin, and luteolin

stoichiometry N [4]: 2
Molecule: flavone reductase (FLR) from Flavonifractor plautii ATCC 49531 (enzyme)

B1: FLR (flavone reductase) (Flavonifractor plautii 1_3_50AFAA) (protein)
chain: MKILGISGGMRNGSNDGMCIEALMGAKEMGAEVEFIQLQNLHIEHCTGCTACVQSVLGGRGGKCVLKDDFDWLLDKMLDADGIVFSTPIFEKGATGLFHTITDRFGPRMDRGNNIIGTKIAEETGGTAPDPRILKDKVISFMSVGGSDWVTRTQCDAGMLALTPMWKVIDNEVFPWALSILVEDERVARAHQIGRNIAEAAKNIEHAQYQGDAGVCPHCHSRNFHLQDGKAICCLCGLEGEIHNESGKYSFTFPAEQLEHAHDTLSGKFIHGNDIKENTGKKIANMQTEKYKARQAAYRAFITATVPEKG
notes: SeMet-labelled for crystals
Km [5]: 8.36 ± 1.34 µM | kcat [5]: 0.0165 ± 0.0009 s⁻¹ | Km [6]: 12.27 ± 1.46 µM | kcat [6]: 0.0577 ± 0.0025 s⁻¹
